The subject of test [1] is Staphylococcus aureus. Briefly: Minimal inhibitory concentration (MIC) determination. It is filed as cell-based. The settings on record: Staphylococcus aureus. The procedure: (§1) The minimal inhibitory concentration (MIC) of tested compounds was determined following the NCCLS standard. The experiments were conducted in 96-well microtiter plates using two-fold dilutions in Muller-Hilton broth with (Streptococcus pneumonia) or without blood (Bacillus subtilis, Enterococcus faecalis, Staphylococcus aureus). Exponentially growing cells at 5×10^5 cells/ml were incubated with test compounds at various concentrations.

Test [2] relates to Streptococcus pneumoniae. The description is as above. It is filed as cell-based. The settings on record: Streptococcus pneumoniae. The procedure:
as §1

Test [3] deals with Enterococcus faecalis. Described as above. It is filed as cell-based. The note with it: Enterococcus faecalis. The procedure:
as §1

The subject of test [4] is Bacillus subtilis. The test is described as above. The format is cell-based. The note with it: Bacillus subtilis. The procedure: as §1
In test [5] the target is T1, H. pylori PBP1a (Helicobacter pylori, UniProt O25319, /I22V/I24V/I79V/M17V/S417T/V16I, form not given).
T1 sequence (O25319 1-659 V16I/M17V/I22V/I24V/G44S/I79V/I101V/F125L/G242S/E323D/D336E/E406V/S417T/D508E): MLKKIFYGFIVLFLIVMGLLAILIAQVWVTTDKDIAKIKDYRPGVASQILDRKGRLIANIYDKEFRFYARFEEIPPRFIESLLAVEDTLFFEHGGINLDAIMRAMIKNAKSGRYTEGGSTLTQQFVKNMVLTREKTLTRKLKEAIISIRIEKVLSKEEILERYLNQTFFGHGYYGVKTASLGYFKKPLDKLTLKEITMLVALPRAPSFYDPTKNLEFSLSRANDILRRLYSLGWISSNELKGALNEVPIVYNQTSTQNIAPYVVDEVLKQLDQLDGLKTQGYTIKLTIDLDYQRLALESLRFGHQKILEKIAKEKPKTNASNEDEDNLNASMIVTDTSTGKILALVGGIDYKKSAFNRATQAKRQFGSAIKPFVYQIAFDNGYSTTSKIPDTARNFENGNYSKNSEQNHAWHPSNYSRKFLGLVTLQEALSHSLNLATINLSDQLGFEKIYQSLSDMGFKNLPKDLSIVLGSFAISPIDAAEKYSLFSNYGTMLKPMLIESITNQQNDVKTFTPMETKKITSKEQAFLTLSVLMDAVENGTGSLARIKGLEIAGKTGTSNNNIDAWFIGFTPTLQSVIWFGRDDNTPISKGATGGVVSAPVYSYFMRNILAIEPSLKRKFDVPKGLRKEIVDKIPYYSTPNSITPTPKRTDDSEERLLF
The format is binding. The note with it: read-out: IC50 (fluorescence anisotropy assay, displacement of F-Moe); 100 nM F-Moe, 10 μg/ml H. pylori PBP1a, 10 mM Tris pH 8.0, 100 mM NaCl. As to the method:
Fluorescence anisotropy measurements were carried out in triplicates in the wells of 384-well plates using a laser fluorimetry equipped with a 488 nm laser (IsoCyte, Blueshift Biotech, Inc., Sunnyvale, Calif., USA). Various buffers, salts, pH values, and divalent cations (Ca^++, Mg^++, Co^++) were optimized for fluorescence anisotropy measurements. […] The scanning focus was above the plate bottom to avoid detection interferences. Data analysis was performed with the proprietary software, BlueImage (Blueshift Biotech Inc). Fluorescence anisotropy values (A) were calculated using the equation: A=(/∥−G*/⊥)/(/∥+2G*/⊥), where /∥ is the fluorescence intensity of emitted light parallel to excitation, /⊥ is the fluorescence intensity of emitted light perpendicular to excitation, and G is the […] that corrects for instrument bias. The G factor is experimentally determined for each run using the probe-only well as the basal an isotropy.
For the development of an assay for inhibitor screening, F-Moe was pre-incubated with H. pylori PBP1a and then competed with unlabeled Moe A at various concentrations.
For displacement assay, the initial condition contained 40 μl of 100 nM F-Moe, 10 μg/ml H. pylori PBP1a in 10 mM Tris, pH 8.0, 100 mM NaCl. Aliquots of compound stock solution were added and the anisotropy was monitored after 5 minutes of equilibration. The data from the displacement assay was used to calculate the inhibition constant (KI) and IC50 value of an inhibitor using the complete competitive binding model
[formula] The KI value was determined by plotting the total inhibitor concentration (C) versus the molar ratio of bound/free F-Moe and fitting the resulting curve to [Eq. 2], C=[(KI/KD*X)+1][RT−(LST*X)/(X+1)−KD*X [Eq. 2] […] The reported value is the average of four different runs.
For IC50 determination, the fraction of bound fluorescent probe is plotted versus the log value of the competitor concentration (C).

The mark [6] stands for this setting: S. aureus ATCC29213, Muller-Hilton broth, 18 h to 24 h, 37° C., read-out: MIC S. aureus (ATCC29213).
The mark [7] stands for this setting: S. pneumoniae ATCC49619, Muller-Hilton broth with blood, 18 h to 24 h, 37° C., read-out: MIC S. pneumoniae (ATCC49619).
[8] abbreviates: E. faecalis ATCC29212, Muller-Hilton broth, 18 h to 24 h, 37° C., read-out: MIC E. faecalis (ATCC29212).
Setting [9] is: B. subtilis ATCC23857, Muller-Hilton broth, 18 h to 24 h, 37° C., read-out: MIC B. subtilis (ATCC23857).

Converted amounts (≈) assume the structure as drawn. Read-outs that look alike come from different tables or passages of the source.

In general, MIC refers to the lowest concentration that inhibits growth of the organism. A word on the IC50: it is the concentration that inhibits the measured activity by half.

Take `C=C(CC=C(C)CCC=C(C)C)CCC(C)(C)C=CCCC(C)=CCOC(COP(=O)(O)OC1OC(C(N)=O)C(C)(O)C(OC(N)=O)C1OC1OC(COC2OC(CO)C(O)C(O)C2O)C(OC2OC(C)C(OC3OC(c4nc(C(=O)CCC(=O)O)nn4-c4ccc([N+](=O)[O-])c(C(=O)NCCN)c4)C(O)C(O)C3O)C(O)C2NC(C)=O)C(O)C1NC(C)=O)C(=O)O` (stereo not drawn) [Compound 2]: the MIC was 1.25 µM (≈ 2.27 µg/mL) in test [1] (setting [6]), 20 µM (≈ 36.4 µg/mL) in test [2] (setting [7]), 10 µM (≈ 18.2 µg/mL) in test [3] (setting [8]) and 2.5 µM (≈ 4.54 µg/mL) in test [4] (setting [9]). Also, the IC50 in test [5] was 2.1 µM.

For `O=C1/C(=N\Nc2nccs2)C(c2ccccc2)=NN1c1ccccc1` [Compound 7], the minimum inhibitory concentration (MIC) in test [1] (setting [6]) turned out to be 4 µM (≈ 1.39 µg/mL); in test [3] (setting [8]) it was 1 µM (≈ 0.347 µg/mL); in test [4] (setting [9]), 0.25 µM (≈ 0.0869 µg/mL). Further, the IC50 in test [5] is 3.7 µM.

In the case of `O=C1OC(c2ccc(Br)cc2)=C/C1=C/c1ccc([N+](=O)[O-])o1` [Compound 6, (Z)-5-(4-bromophenyl)-3-((5-nitrofuran-2-yl)methylene)furan-2(3H)-one], the MIC in test [1] (setting [6]) stood at 1 µM (≈ 0.362 µg/mL); in test [2] (setting [7]), 4 µM (≈ 1.45 µg/mL); in test [3] (setting [8]), 0.25 µM (≈ 0.0905 µg/mL); in test [4] (setting [9]) it was 0.25 µM (≈ 0.0905 µg/mL). Moreover, in test [5], the half-maximal inhibitory concentration (IC50) is 34 µM.

As for `C/C(=C\c1ccc(C(=O)O)cc1)c1ccc2c(c1)C(C)(C)CCC2(C)C` [Compound 8, (E)-4-(2-(5,5,8,8,-tetramethyl-5,6,7,8-tetrahydronaphthalen-2-yl)prop-1-enyl)benzoic acid], the MIC is more than 4 µM in test [1] (setting [6]), more than 4 µM in test [2] (setting [7]), more than 4 µM in test [3] (setting [8]) and 4 µM (≈ 1.39 µg/mL) in test [4] (setting [9]). Further, the IC50 in test [5] was found to be 9.3 µM.

For `C=C(CC=C(C)CCC=C(C)C)CCC(C)(C)C=CCCC(C)=CCOC(COP(=O)(O)OC1OC(C(N)=O)C(C)(O)C(OC(N)=O)C1OC1OC(COC2OC(CO)C(O)C(O)C2O)C(OC2OC(C)C(OC3OC(c4nc(C(=O)CCC(=O)O)nn4-c4ccc([N+](=O)[O-])c(C(=O)NCCNC(=O)CCCCCCC(=O)NCCNC(=O)c5cc(-n6nc(C(=O)CCC(=O)O)nc6C6OC(OC7C(C)OC(OC8C(COC9OC(CO)C(O)C(O)C9O)OC(OC9C(OP(=O)(O)OCC(OCC=C(C)CCC=CC(C)(C)CCC(=C)CC=C(C)CCC=C(C)C)C(=O)O)OC(C(N)=O)C(C)(O)C9OC(N)=O)C(NC(C)=O)C8O)C(NC(C)=O)C7O)C(O)C(O)C6O)ccc5[N+](=O)[O-])c4)C(O)C(O)C3O)C(O)C2NC(C)=O)C(O)C1NC(C)=O)C(=O)O` (stereo not drawn) [Compound 4], the MIC in test [1] (ATCC29213, read-out: MIC S. aureus (ATCC29213)) is 0.625 µM (≈ 2.36 µg/mL); in test [2] (ATCC49619, read-out: MIC S. pneumoniae (ATCC49619)) it was 20 µM (≈ 75.5 µg/mL); in test [3] (ATCC29212, read-out: MIC E. faecalis (ATCC29212)), 5 µM (≈ 18.9 µg/mL); in test [4] (ATCC23857, read-out: MIC B. subtilis (ATCC23857)), 1.25 µM (≈ 4.72 µg/mL). In addition, in test [5], the concentration for half-maximal inhibition (IC50) is 0.92 µM.

These data come from US8916540B2, “Antibiotic compositions and related screening methods” (Academia Sinica, priority 2008, dated 2014).
